Test results as given in patent publication US10800792B2, “Inhibitors of Bruton's tyrosine kinase and method of their use” (JANSSEN PHARMACEUTICA NV, priority 2015, dated 2020).

Target: unphosphorylated-BTK kinase domain (UP-BTK), GST-tagged human BTK (389-659aa) (Homo sapiens (Human), UniProt Q06187)
Experiment: BTK kinase Lanthascreen binding assay
Settings: Lanthascreen tracer competition, 60 minutes incubation; pIC50 = negative log of the IC50 in molar
Procedure, shortened: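 A fluorescent tracer is bound to unphosphorylated BTK; test compound is added to compete it off; the Lanthascreen signal is read and IC50 is fitted, then reported as its negative log in molar.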

Chain of unphosphorylated-BTK kinase domain (UP-BTK), GST-tagged human BTK (389-659aa) (Q06187 389-659): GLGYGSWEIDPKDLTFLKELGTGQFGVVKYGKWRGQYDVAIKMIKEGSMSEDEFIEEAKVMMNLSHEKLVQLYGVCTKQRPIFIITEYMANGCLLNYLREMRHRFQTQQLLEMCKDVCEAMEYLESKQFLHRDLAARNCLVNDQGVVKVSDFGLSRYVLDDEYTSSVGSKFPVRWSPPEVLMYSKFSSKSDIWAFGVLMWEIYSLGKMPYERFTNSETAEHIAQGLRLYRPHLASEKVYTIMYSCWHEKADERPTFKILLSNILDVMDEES

| Structure (SMILES) | BTK_I_binding pIC50 |
| --- | --- |
| Cc1cc(Oc2ccccc2)ccc1N1C(=O)Nc2c(C(=O)NC3CCCN(C(=O)/C(C#N)=C/C4CC4)C3)sc3nccc1c23 (stereo not shown) [Example 877, (E)-N-(1-(2-Cyano-3-cyclopropylacryloyl)piperidin-3-yl)-5-(2-methyl-4-phenoxyphenyl)-4-oxo-4,5-dihydro-3H-1-thia-3,5,8-triazaacenaphthylene-2-carboxamide] | 7.1 |
| COc1ccc(N2C(=O)Nc3c(C(=O)NC4CCCN(C(=O)/C(C#N)=C/C5CC5)C4)sc4nccc2c34)c(C)c1 (stereo not shown) [Example 878, (E)-N-(1-(2-Cyano-3-cyclopropylacryloyl)piperidin-3-yl)-5-(4-methoxy-2-methylphenyl)-4-oxo-4,5-dihydro-3H-1-thia-3,5,8-triazaacenaphthylene-2-carboxamide] | 7.1 |
| Cc1cc(Oc2ccccc2)ccc1N1C(=O)Nc2c(C(=O)N[C@H]3CCCN(C=O)C3)sc3nccc1c23 [Example 879, (S)—N-(1-Formylpiperidin-3-yl)-5-(2-methyl-4-phenoxyphenyl)-4-oxo-4,5-dihydro-3H-1-thia-3,5,8-triazaacenaphthylene-2-carboxamide] | 7.1 |
| Cc1cc(Oc2ccccc2)ccc1N1C(=O)Nc2c(C(=O)N[C@@H]3CCCN(C(=O)/C(C#N)=C/C(C)(C)C)C3)sc3nccc1c23 [Example 880, (R,E)-N-(1-(2-Cyano-4,4-dimethylpent-2-enoyl)piperidin-3-yl)-5-(2-methyl-4-phenoxyphenyl)-4-oxo-4,5-dihydro-3H-1-thia-3,5,8-triazaacenaphthylene-2-carboxamide] | 7.1 |
| C=CC(=O)N1CC[C@@H](NC(=O)c2sc3nccc4c3c2NC(=O)N4c2ccc(Oc3ccccn3)cc2)C1 [Example 881, (R)—N-(1-Acryloylpyrrolidin-3-yl)-4-oxo-5-(4-(pyridin-2-yloxy)phenyl)-4,5-dihydro-3H-1-thia-3,5,8-triazaacenaphthylene-2-carboxamide] | 7.1 |
| Cc1cc(Oc2ccccc2)ccc1N1C(=O)Nc2c(C(=O)NC3CCCN(C(=O)CC#N)C3)sc3nccc1c23 (stereo not shown) [Example 882, N-(1-(2-Cyanoacetyl)piperidin-3-yl)-5-(2-methyl-4-phenoxyphenyl)-4-oxo-4,5-dihydro-3H-1-thia-3,5,8-triazaacenaphthylene-2-carboxamide] | 7.0 |
| COc1ccccc1Oc1ccc(N2C(=O)Nc3c(C(=O)NC4CCCN(C#N)C4)sc4nccc2c34)c(C)c1 (stereo not shown) [Example 883, N-(1-Cyanopiperidin-3-yl)-5-(4-(2-methoxyphenoxy)-2-methylphenyl)-4-oxo-4,5-dihydro-3H-1-thia-3,5,8-triazaacenaphthylene-2-carboxamide] | 7.0 |
| COc1ccccc1Oc1ccc(N2C(=O)Nc3c(C(=O)NC4CCN(C#N)CC4)sc4nccc2c34)c(C)c1 [Example 884, N-(1-Cyanopiperidin-4-yl)-5-(4-(2-methoxyphenoxy)-2-methylphenyl)-4-oxo-4,5-dihydro-3H-1-thia-3,5,8-triazaacenaphthylene-2-carboxamide] | 7.0 |
| Cc1cc(Oc2ccccc2)ccc1N1C(=O)Nc2c(C(=O)N[C@@H]3CCCN(C=O)C3)sc3nccc1c23 [Example 885, (R)—N-(1-Formylpiperidin-3-yl)-5-(2-methyl-4-phenoxyphenyl)-4-oxo-4,5-dihydro-3H-1-thia-3,5,8-triazaacenaphthylene-2-carboxamide] | 7.0 |
| Cc1ccccc1N1C(=O)Nc2c(C(=O)NC3CCCN(C(=O)/C(C#N)=C/C4CC4)C3)sc3nccc1c23 (stereo not shown) [Example 886, (E)-N-(1-(2-Cyano-3-cyclopropylacryloyl)piperidin-3-yl)-4-oxo-5-(o-tolyl)-4,5-dihydro-3H-1-thia-3,5,8-triazaacenaphthylene-2-carboxamide] | 7.0 |
